The results in this text go back to article PMC11640089, “JRM-28, a Novel HDAC2 Inhibitor, Upregulates Plasticity-Associated Proteins in Hippocampal Neurons and Enhances Morphological Plasticity via Activation of CREB: Implications for Alzheimer’s Disease” (Cells, 2024).

Assay [1] concerns mouse primary hippocampal neurons. Kind of assay: Dendrite and spine analysis in E18 mouse primary hippocampal neurons. Format: cell-based. To be noted: 5 µM, 48 h. The method, then:
Primary neuronal cell culture was performed based on a protocol approved by the Institutional Animal Care and Use Committee (IACUC) of the University of Wisconsin-Milwaukee, Milwaukee, WI-53211, and by the guidelines set by the National Institute of Health. Embryonic day 18 (E18) fetuses were harvested, and hippocampal tissue was dissected from brains and then processed for single cell culture in poly-D-lysine-coated plates, as discussed elsewhere. Neuronal cells were maintained with B-27^TM-plus-supplemented complete neurobasal media for 7–10 days until fully differentiated. After that, the treatment with JRM-28 was performed. […]
For counting spine density, dissociated E18 hippocampal neurons maintained 18 days in vitro were stained with Alexa-647 conjugated phalloidin (Cat #A22287) together with MAP2. Only densely stained neurons (>20 spines every 10 µm dendrite) were counted. The total length of each dendrite was measured at 400× magnification using an Accu-Scope EXC-500 microscope (NY, USA). The number of spines on the dendrites was counted under oil immersion. As some of the spines were hidden under the dendrite, only spines that protruded laterally from the shafts of the dendrites into the surrounding area of clear neuropil were counted. […]

In assay [2] the test system is CREB. Kind of assay: CREB family expression (PCR array, RT-PCR, immunoblot) in SHSY5Y cells. In kind it is cell-based, human. How it is done: Total RNA was isolated from SHSY5Y neurons using Gene JET RNA Purification Kit (Thermofisher Scientific; Cat #K0731) following the manufacturer’s protocol. RNA was converted to cDNA using the GoScript™ Reverse Transcriptase kit (Promega, Cat # A5001). Semi-quantitative RT-PCR was carried out as described earlier using an RT-PCR kit from Promega (Cat# M7502). Briefly, 1 µg of total RNA was reverse-transcribed using oligo(dT)12–18 as a primer and MMLV reverse transcriptase in a 20 µL reaction mixture. The resulting cDNA was diluted by nuclease-free H2O in a ratio of 1:2, and diluted cDNA was amplified using the following primers (Table 2).
Immunoblot analysis was carried out as described earlier. Briefly, SHSY5Y neuronal cell homogenates were electrophoresed by 4–12% Tris-Glycine gradient gel, proteins were transferred onto a 0.45 μm nitrocellulose membrane, and the protein band was visualized with Odyssey Sa infrared scanner after immunolabeling with primary antibodies followed by infrared fluorophore-tagged secondary antibody (Licor Biosciences, Lincoln, NE, USA).
In general terms: A western blot detects proteins with antibodies after separation by electrophoresis.

For assay [3], the system named is iPSC-derived AD neurons. Kind of assay: Dual immunofluorescence in iPSC-derived AD neurons (A246E psen1). Format: cell-based, human. How it is done:
(§1) Primary neuronal cell culture was performed based on a protocol approved by the Institutional Animal Care and Use Committee (IACUC) of the University of Wisconsin-Milwaukee, Milwaukee, WI-53211, and by the guidelines set by the National Institute of Health. Embryonic day 18 (E18) fetuses were harvested, and hippocampal tissue was dissected from brains and then processed for single cell culture in poly-D-lysine-coated plates, as discussed elsewhere. Neuronal cells were maintained with B-27^TM-plus-supplemented complete neurobasal media for 7–10 days until fully differentiated. After that, the treatment with JRM-28 was performed. SHSY5Y cells were grown, maintained, and passaged with complete DMEM media (a bottle of DMEM supplemented with 10% FBS, 2 mM L-glutamine, and 100 units/mL antibiotics); otherwise, for neuronal differentiation study, SHSY5Y was seeded with complete neurobasal medium. For making AD neurons, commercially purchased (Axol Bioscience Ltd.) A246E psen1 neural stem cells (NSCs) were maintained with KnockOut^TM DMEM/F12 media supplemented with StemPro^TM Neural Supplement, bFGF, EGF, 2 mM GlutMAX^TM supplement, and 10 mL/L antibiotic-antimycotic solution. These […] NSCs were grown in a […] cell culture flask coated with Geltrex^TM matrix until fully confluent and then detached by Accutase, centrifuged, washed, and plated in a poly-D-lysine-coated plate supplemented with complete neurobasal media for neuronal differentiation. After one week, when neurons were differentiated, JRM-28 treatment was conducted.
Immunofluorescence analysis was performed as described earlier. Briefly, cells cultured on coverslip contained in six-well plates (Lab-Tek II) were fixed with 4% paraformaldehyde for 20 min followed by two rinses in TBST. Samples were incubated in a 1:1 solution of TBST and blocking buffer containing rabbit anti-NR2A (1:250), anti-GluR1 (1:250), ant-HDAC2 (1:250), anti-CREB (1:250), and anti-MAP2 (1:250) for 2 h at 37 °C. After three washes in PBST (15 min each), slides were further incubated with FIT-C and TRIT-C-conjugated secondary antibodies. For negative controls, a set of culture slides was incubated under similar conditions with secondary antibodies and without the primary antibodies (Table 3). The samples were mounted and observed under an Accuscope fluorescent microscope. The images were captured and merged in CaptaVision^TM imaging software.

The target in assay [4] is HDAC2 (Homo sapiens, UniProt Q92769). Kind of assay: Fluorimetric HDAC inhibition assay, HDAC2. In kind it is biochemical. Details: purchased BPS Bioscience 50034 (HDAC Fluorogenic Assay Kit; enzyme supplied with kit). To be noted: reduced with DTT. The method, then:
The inhibition of HDAC1, 2, 3, and 6 by JRM-28 was fluorometrically measured using the HDAC Fluorogenic Assay Kit (Catalog# 50034) by BPS bioscience. Purified recombinant human HDAC1 (Cat# 50051), HDAC3 (Cat# 50003), and HDAC6 (Cat# 50056) were also obtained from BPS Bioscience. The enzyme inhibition assay was performed according to the manufacturer’s protocol. […] Purified recombinant HDAC2 (supplied with the fluorogenic kit) was diluted to 6 ng/µL (5 µL/well with the supplied HDAC assay buffer). HDAC 1, 3, and 6 were also diluted to the optimized concentration (5 µL/well) with the HDAC assay buffer. The activity of JRM-28 was measured along with DTT control and DMSO as blank. After adding 5 µL of the diluted HDAC enzymes in designated wells, the 96-well plate (supplied with the kit) was incubated at 37 °C. Then, the reaction was initiated by adding 5 µL of diluted HDAC substrate to each well, followed by another incubation at 37 °C for 30 min. Next, 50 µL of the developer reagent was added to each well and incubated at room temperature for another 15 min. Finally, fluorescence was measured by a microplate absorbance spectrophotometer (PerkinElmer Enspire 2300 Multilabel Multimode Microplate Reader) with an excitation at λ = 485 nm and detection at λ = 528 nm.

Assay [5] has as its system SHSY5Y human neuronal cells. Kind of assay: MAP2 immunofluorescence/immunoblot, dendritic morphogenesis in SHSY5Y neurons. In kind it is cell-based. The method, then:
as §1
Immunofluorescence analysis was performed as described earlier. Briefly, cells cultured on coverslip contained in six-well plates (Lab-Tek II) were fixed with 4% paraformaldehyde for 20 min followed by two rinses in TBST. Samples were incubated in a 1:1 solution of TBST and blocking buffer containing rabbit anti-NR2A (1:250), anti-GluR1 (1:250), ant-HDAC2 (1:250), anti-CREB (1:250), and anti-MAP2 (1:250) for 2 h at 37 °C. After three washes in PBST (15 min each), slides were further incubated with FIT-C and TRIT-C-conjugated secondary antibodies. […]

“And” between values parts separate entries of the source, which are not always exact repeats. Equal values may be shown once.

Sequence of HDAC2 (Q92769 whole entry): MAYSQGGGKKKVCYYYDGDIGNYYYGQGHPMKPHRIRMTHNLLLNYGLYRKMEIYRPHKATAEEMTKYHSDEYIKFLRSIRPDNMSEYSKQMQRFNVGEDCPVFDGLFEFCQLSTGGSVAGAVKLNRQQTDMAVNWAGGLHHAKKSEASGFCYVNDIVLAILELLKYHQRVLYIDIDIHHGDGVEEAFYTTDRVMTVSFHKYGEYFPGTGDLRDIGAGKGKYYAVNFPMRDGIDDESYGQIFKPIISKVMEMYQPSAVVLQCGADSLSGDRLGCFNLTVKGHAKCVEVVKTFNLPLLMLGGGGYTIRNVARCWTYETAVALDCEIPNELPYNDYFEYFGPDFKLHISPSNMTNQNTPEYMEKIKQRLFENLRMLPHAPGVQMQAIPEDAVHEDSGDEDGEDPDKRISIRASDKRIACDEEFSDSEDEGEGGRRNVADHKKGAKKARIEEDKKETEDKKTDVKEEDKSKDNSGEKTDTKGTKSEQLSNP

The IC50 is the point on the concentration scale where inhibition reaches its midpoint. A lower IC50 goes with greater potency in that assay. Turning to `CN(C(=O)CC(O)/C=C/CCSS(=O)(=O)CC/C=C/C(O)CC(=O)N(C)c1ccccc1)c1ccccc1` (stereo not drawn) [JRM-28, S-((E)-5-hydroxy-7-(methyl(phenyl)amino)-7-oxohept-3-en-1-yl) (E)-5-hydroxy-7-(methyl(phenyl)amino)-7-oxohept-3-ene-1-sulfonothioate], the “spine maturation (head-to-shaft ratio >0.6)” value in assay [1] (18 DIV) is listed as “significantly induced the maturation of spines”. The MAP2-ir basal dendrites result in assay [1] (8 days in vitro) was “significantly upregulated the synthesis of MAP2-ir basal dendrites”. For the same compound, in assay [2] (5 µM), the “CREB and CREB-dependent gene expression (RT2 Profiler PCR Array)” value is “strongly upregulated the expressions of the creb gene and 37 other CREB-dependent genes”; the “creb mRNA expression (semi-quantitative RT-PCR)” value is on record as “upregulated the mRNA expression of creb”. In addition, the “crem mRNA expression (semi-quantitative RT-PCR)” value in assay [2] (2 and 5 µM) is recorded as “failed to upregulate the expression of crem”. In addition, the “CREB protein expression (immunoblot)” value in assay [2] (increasing concentrations) is “upregulated the expression of CREB protein”. In assay [3] (5 µM), the “expressions of ionotropic glutamate receptors (NR2A, GluR1)” value is on record as “augmented the expressions of ionotropic glutamate receptors” and the “length of MAP2-ir basal dendrites” value is recorded as “increase the length of MAP2-ir basal dendrites”. Further, in assay [3] (5 μM, 24 h (legend: 48 h)), the “CREB expression (dual IF)” value is “strong upregulation of CREB” and the “HDAC2 expression (dual IF)” value was “significant downregulation of HDAC2”. The IC50 in assay [4] was ~107 nM and 107 nM. Moreover, the “Hill slope HDAC2 (fluorimetric)” value in assay [4] (listed as JRM-28 (JRM-28a+28b)) is −1.580. Besides, the “dendritic length / dendritic morphogenesis” value in assay [5] (5 µM versus control, n = 200 per group) is given as “augmented the dendritic morphogenesis”. Also, in assay [5] (5 µM, 48 h (legend: 24 h)), the “dendritic pruning (MAP2-ir appendages)” value is “significantly stimulated dendritic pruning”. For the same compound, the “MAP2 expression (immunoblot)” value in assay [5] (5 and 10 µM) is “upregulated the expressions of MAP2”.
